Measurements published in ChEMBL document CHEMBL2086221, “Armeniaspiroles, a new class of antibacterials: Antibacterial activities and total synthesis of 5-chloro-Armeniaspirole A” (Bioorg Med Chem Lett, 2012).
Active and inactive are the calls of the source. The rule behind the calls is not given here.

Experiments:
Streptococcus pneumoniae [1] = test: Antibacterial activity against penicillin-resistant Streptococcus pneumoniae DSM 11865; type: functional
Staphylococcus aureus [2] = test: Antibacterial activity against methicillin-resistant Staphylococcus aureus ATCC 33592; type: functional
Enterococcus faecium [3] = test: Antibacterial activity against vancomycin-resistant Enterococcus faecium DSM 17050; type: functional
Escherichia coli [4] = test: Antibacterial activity against Escherichia coli ATCC 35218 expressing LacR; type: functional
Pseudomonas aeruginosa [5] = test: Antibacterial activity against Pseudomonas aeruginosa ATCC 27853; type: functional
Staphylococcus aureus [6] = test: Antibacterial activity against methicillin-resistant Staphylococcus aureus ATCC 33592 at >1 ug/mL after 48 hrs; type: functional, organism-based
Streptococcus pneumoniae [7] = test: Antibacterial activity against penicillin-resistant Streptococcus pneumoniae DSM 11865 at >1 ug/mL after 48 hrs; type: functional, organism-based
Enterococcus faecium [8] = test: Antibacterial activity against vancomycin-resistant Enterococcus faecium DSM 17050 at >1 ug/mL after 48 hrs; type: functional, organism-based
Escherichia coli [9] = test: Antibacterial activity against Escherichia coli ATCC 35218 expressing LacR at >1 ug/mL after 48 hrs; type: functional, organism-based
Pseudomonas aeruginosa [10] = test: Antibacterial activity against Pseudomonas aeruginosa ATCC 27853 at >1 ug/mL after 48 hrs; type: functional, organism-based
Staphylococcus aureus [11] = test: Bacteriostatic activity against methicillin-resistant Staphylococcus aureus ATCC 33592 by time kill study in presence of fetal calf serum; type: functional, organism-based
Streptococcus pneumoniae [12] = test: Bacteriostatic activity against penicillin-resistant Streptococcus pneumoniae DSM 11865 by time kill study in presence of fetal calf serum; type: functional, organism-based
Enterococcus faecium [13] = test: Bacteriostatic activity against vancomycin-resistant Enterococcus faecium DSM 17050 by time kill study in presence of fetal calf serum; type: functional, organism-based
Escherichia coli [14] = test: Bacteriostatic activity against Escherichia coli ATCC 35218 expressing LacR by time kill study in presence of fetal calf serum; type: functional, organism-based
Pseudomonas aeruginosa [15] = test: Bacteriostatic activity against Pseudomonas aeruginosa ATCC 27853 by time kill study in presence of fetal calf serum; type: functional, organism-based
Escherichia coli [16] = test: Bacteriostatic activity against Escherichia coli ATCC 35218 expressing LacR by time kill study; type: functional, organism-based
Pseudomonas aeruginosa [17] = test: Bacteriostatic activity against Pseudomonas aeruginosa ATCC 27853 by time kill study; type: functional, organism-based
[18] = Streptococcus pneumoniae, DSM 11865
[19] = Staphylococcus aureus, ATCC 33592
[20] = Enterococcus faecium, DSM 17050

| SMILES | IC80 (Streptococcus pneumoniae [1]; [18]) | IC80 (Staphylococcus aureus [2]; [19]) | IC80 (Enterococcus faecium [3]; [20]) | IC80 (Escherichia coli [4]) | IC80 (Pseudomonas aeruginosa [5]) | Activity (Staphylococcus aureus [6]) | Activity (Streptococcus pneumoniae [7]) | Activity (Enterococcus faecium [8]) | Activity (Escherichia coli [9]) | Activity (Pseudomonas aeruginosa [10]) | Activity (Staphylococcus aureus [11]) | Activity (Streptococcus pneumoniae [12]) | Activity (Enterococcus faecium [13]) | Activity (Escherichia coli [14]) | Activity (Pseudomonas aeruginosa [15]) | IC80 (Streptococcus pneumoniae [1]) | Activity (Escherichia coli [16]) | Activity (Pseudomonas aeruginosa [17]) | IC80 (Staphylococcus aureus [2]) | IC80 (Enterococcus faecium [3]) |
| --- | --- | --- | --- | --- | --- | --- | --- | --- | --- | --- | --- | --- | --- | --- | --- | --- | --- | --- | --- | --- |
| CCCCCCc1c(O)c(Cl)cc2c1O[C@@]1(C2=O)C(Cl)=C(Cl)C(=O)N1C | 0.5 µM | 1.4 µM | 6.7 µM | > 30 µM | > 30 µM | Active | Active | Active | Active | Active | inactive | inactive | inactive | inactive | inactive | – | – | – | – | – |
| CCCCCCc1c(O)c(Cl)cc2c1OC1(C2=O)C(Cl)=C(Cl)C(=O)N1C (racemic) | 1.3 µM | 3.1 µM | 5.2 µM | > 30 µM | > 30 µM | Active | Active | Active | Active | Active | inactive | inactive | inactive | inactive | inactive | – | – | – | – | – |
| CCCCCCc1c(O)c(Cl)cc2c1O[C@]1(C2=O)C(Cl)=C(Cl)C(=O)N1C (stereo in doubt; form 1) [listing 1 of 2 here] | – | 5.1 µM | 8.5 µM | > 30 µM | > 30 µM | – | – | – | – | – | – | – | – | – | – | 1.7 µM | – | – | – | – |
| CCCCCCc1c(O)c(Cl)cc2c1O[C@]1(C2=O)C(Cl)=C(Cl)C(=O)N1C (stereo in doubt; form 1) [listing 2 of 2 here] | – | – | – | – | – | Active | Active | Active | Active | Active | inactive | inactive | inactive | inactive | inactive | – | Dose-dependent effect | Dose-dependent effect | – | – |
| CCCCCCc1c(O)c(Cl)cc2c1O[C@]1(C2=O)C(Cl)=C(Cl)C(=O)N1C (stereo in doubt; form 2) | – | – | – | – | – | – | – | – | – | – | – | – | – | – | – | 0.4 µM | – | – | 3.7 µM | 8.2 µM |
